US4609758A, “Phenoxyethylamine derivatives” (American Home Products Corporation, priority 1985, dated 1986)

Assays:
[1] = tested on: synaptosomal uptake of norepinephrine; assay: Inhibition of synaptosomal norepinephrine (3H-NE) uptake; format: biochemical; details: synaptosomal uptake of 3H-NE, read-out: NE uptake, inhibitory concentration at which the rate of uptake was reduced to 50 percent (IC50)
muscarinic receptor = assay: Inhibition of 3H-QNB binding (QNB receptor binding assay); details: for Ki / IC50: inhibition of 3H-QNB binding; for anticholinergic property reflected by inhibition of binding of the muscarinic receptor ligand 3H-QNB (in words): 3H-quinuclidinyl benzilate
[2] = tested on: synaptosomal uptake of serotonin (5-HT); assay: Inhibition of synaptosomal serotonin (14C-5-HT) uptake; format: biochemical; details: synaptosomal uptake of 14C-5-HT, read-out: 5-HT uptake, inhibitory concentration at which the rate of uptake was reduced to 50 percent (IC50)

Row | Compound | IC50 [1] [nM] | Ki (muscarinic receptor) [nM] | IC50 [2] [nM] | anticholinergic property reflected by inhibition of binding of the muscarinic receptor ligand 3H-QNB (in words) (muscarinic receptor) | IC50 (muscarinic receptor) [nM]
2 | CNCCCN1c2ccccc2CCc2ccccc21 [DMI, reference compound] | 150 | […] | – | – | –
3 | CN(C)CC(Oc1ccc(Cl)cc1)C1(O)CCCCC1 (centres unmarked) [Example 1, 1-[1-(4-Chlorophenoxy)-2-(dimethylamino)ethyl]cyclohexanol] | 220 | – | 170 | essentially inactive | > 10000
4 | CN(C)CC(Oc1ccc(Cl)cc1Cl)C1(O)CCCCC1 (centres unmarked) [Example 2, 1-[1-(2,4-Dichlorophenoxy)-2-(dimethylamino)ethyl]cyclohexanol] | 3140 | – | 530 | essentially inactive | > 10000
5 | CN(C)CC(Oc1ccc(Cl)cc1Cl)C1(O)CCCC1 (centres unmarked) [Example 3, 8-[1-(2,4-Dichlorophenoxy)-2-(dimethylamino)ethyl]cyclopentanol] | 2250 | – | 440 | – | –
6 | COc1ccc(OC(CN(C)C)C2(O)CCCCC2)cc1 (centres unmarked) [Example 4, 1-[2-(Dimethylamino)-1-(4-methoxyphenoxy)ethyl]cyclohexanol] | 920 | – | 180 | – | –
7 | COc1ccc(OC(CN(C)C)C2(O)CCCCCC2)cc1 (centres unmarked) [Example 5, 1-[2-(Dimethylamino)-1-(4-methoxyphenoxy)ethyl]cycloheptanol] | 810 | – | 170 | – | –
8 | COc1ccc(OC(CN(C)C)C2(O)CCCC2)cc1 (centres unmarked) [Example 6, 1-[2-(dimethylamino)-1-(4-methoxyphenoxy)ethyl]cyclopentanol] | 3140 | – | 640 | – | –
9 | CN(C)CC(Oc1cccc(C(F)(F)F)c1)C1(O)CCCCC1 (centres unmarked) [Example 7, 1-[2-(dimethylamino)-1-(3-trifluoromethylphenoxy)ethyl]cyclohexanol] | 2350 | – | 1200 | – | –
10 | CN(C)CC(Oc1ccc(C(F)(F)F)cc1)C1(O)CCCCC1 (centres unmarked) [Example 8, 1-[2-Dimethylamino-1-(4-trifluoromethylphenoxy)ethyl]cyclohexanol] | 2500 | – | 340 | – | –
11 | CN(C)CC(Oc1ccc(C(F)(F)F)cc1)C1(O)CCCCCC1 (centres unmarked) [Example 9, 1-[2-Dimethylamino-1-(4-trifluoromethylphenoxy)ethyl]cycloheptanol] | 3780 | – | 490 | – | –
12 | COc1cccc(OC(CN(C)C)C2(O)CCCCC2)c1 (centres unmarked) [Example 10, 1-[2-(Dimethylamino)-1-(3-methoxyphenoxy)ethyl]cyclohexanol] | 1160 | – | 700 | – | –
13 | COc1cccc(OC(CN(C)C)C2(O)CCCCCC2)c1 (centres unmarked) [Example 11, 1-[2-(Dimethylamino)-1-(3-methoxyphenoxy)ethyl]cycloheptanol] | 1160 | – | 900 | – | –
14 | COc1cccc(OC(CN(C)C)C2(O)CCCC2)c1 (centres unmarked) [Example 12, 1-[2-(Dimethylamino)-1-(3-methoxyphenoxy)ethyl]cyclopentanol] | 1580 | – | 970 | – | –
15 | CNCCC(Oc1ccc(C(F)(F)F)cc1)c1ccccc1 (centres unmarked) [Fluoxetine, reference compound] | 4500 | – | – | – | –
16 | CN(C)CCCN1c2ccccc2CCc2ccccc21 [Imipramine, reference compound] | 260 | 37 | 120 | – | –
